The source of these data is patent US20230015949A1, “NEISSERIA TREATMENT USING CANNABINOIDS” (priority 2019, published 2023).

Values after ≈ are worked out from the molar mass of the structure shown. Where two headings read alike, the source gives them in different places.

In general, MIC refers to the lowest concentration that inhibits growth of the organism.

Holding throughout (format): cell-based
The test system of assay [1] is Neisseria gonorrhoeae. Briefly: Agar dilution MIC assay, 25 isolates (Example 3). Particulars: for MIC: Neisseria gonorrhoeae, agar dilution. The procedure: The MIC of Neisseria gonorrhoea was established using an agar dilution MIC assay.
Test drugs were provided by Micromyx. All stock solutions were allowed to stand for at least 1 hr prior to use to auto-sterilize. Leftover stock solutions of comparator drugs were aliquoted and stored at −80° C. Suppliers, catalog/lot numbers, solvents, stock concentrations and testing ranges were as follows.
Test organisms were reference strains from the American Type Culture Collection (ATCC; Manassas, Va.), isolates from WHO, isolates from the CDC antibiotic resistance bank, and clinical isolates from the Micromyx (MMX) repository. Upon receipt at Micromyx, the isolates were streaked under suitable conditions onto agar medium appropriate to each organism and were incubated for 24-48 hr at 35° C. Colonies harvested from these growth plates were resuspended in the appropriate medium containing a cryoprotectant. Aliquots of each suspension were then frozen at −80° C.
Prior to testing, the isolates were sub-cultured onto Chocolate agar (Becton Dickenson [BD]/BBL; Sparks, Md., Cat. No. 221267, Lot No. 9346275) and placed at 35° C. in a CO2 incubator for 24 hrs.
MIC values were determined using the agar dilution method (1, 2). All serial dilutions and liquid handling were performed by hand using sterile pipettes. […] Cannabidiol was prepared as a stock solution at 100× the final concentration in the appropriate solvent and diluted according to CLSI guidelines.
Each test agent was mixed with molten (50-55° C.) GC media agar supplemented with 1% IsoVitalex. […] All other test agents were added to the medium in a ratio of 0.2 mL 100× test agent to 19.8 mL agar. Once test agents were added to the agar in a sterile tube, they were mixed gently and then poured into a sterile 110×15 mm petri dish. Plates were allowed to solidify at room temperature and placed in a laminar air flow hood with the covers off to remove condensed moisture on the agar surface.
Next, each isolate was suspended to the equivalent of a 0.5 McFarland standard in saline using a Siemens Microscan turbidity meter and diluted 1:10. Each bacterial cell suspension was then transferred to wells in a stainless-steel replicator block. The prongs on the replicator deliver approximately 1-2 μl of inoculum to an agar surface. The resulting inoculum spots contained approximately 10^4 cells/spot.
Each agar plate containing either test compound or no drug (control) was stamped with the replicator. All plates were placed with the agar surface up to allow for the inoculum to soak into the agar. The plates were inverted and incubated at 35° C. for 24 hrs in a CO2 incubator and finally inspected for growth.
(In agar dilution, organisms are placed on agar that contains the substance at set levels.)

The subject of assay [2] is Staphylococcus aureus ATCC 29213. As to the kind of experiment: Broth microdilution MIC assay, quality control strain (Example 2). The following applies: ATCC29213, S. aureus ATCC 29213 (QC), CAMHB. As for the experimental part:
Following incubation, colonies were harvested from these plates and cell suspensions prepared and frozen at −80° C. with a cryoprotectant. Prior to testing, N. gonorrhoeae isolates were streaked onto Chocolate Agar [Becton Dickinson, (BD), Sparks, Md.; Lot No. 922807]; Staphylococcus aureus ATCC 29213 tested for quality control (QC) purposes was streaked onto Trypticase Soy Agar with 5% Sheep Blood (TSA II; BD; Lot No. 9219399).
Cation-adjusted Mueller Hinton broth (CAMHB; BD; Lot No. 9019592) was used for MIC testing of S. aureus ATCC 29213 for QC purposes.
MIC values were determined using a broth microdilution procedure described by CLSI (1, 2). Automated liquid handlers (Multidrop 384, Labsystems, Helsinki, Finland; Biomek 2000 and Biomek FX, Beckman Coulter, Fullerton Calif.) were used to conduct serial dilutions and liquid transfers.
(§1) To prepare the drug mother plates, which would provide the serial drug dilutions for the replicate daughter plates, the wells of columns 2 through 12 of standard 96-well microdilution plates (Costar 3795) were filled with 150 μl of the designated diluent for each row of drug. The test articles and comparator compounds (300 μl at 100× the highest concentration to be tested) were dispensed into the appropriate wells in column 1. The Biomek 2000 was then used to make 2-fold serial dilutions in the mother plates from column 1 through column 11. The wells of column 12 contained no drug and served as the organism growth control wells for the assay.
The daughter plates were loaded with 190 μL per well of the appropriate test medium for the tested organism using the Multidrop 384. The daughter plates were completed on the Biomek FX instrument which transferred 2 μL of drug solution from each well of a mother plate to the corresponding well of each daughter plate in a single step. Daughter plates for the testing of anaerobes were allowed to pre-reduce in the Bactron II anaerobe chamber for 2 hr prior to inoculation.
A standardized inoculum of each test organism was prepared per CLSI methods (1, 2). The inoculum for each organism was dispensed into sterile reservoirs divided by length (Beckman Coulter), and the Biomek 2000 was used to inoculate the plates. Daughter plates were placed on the Biomek 2000 work surface in reverse orientation so that inoculation took place from low to high drug concentration. Anaerobic organisms were inoculated by hand in the Bactron II anaerobic chamber. Bacterial plates were then inoculated with 10 μL of the inoculum resulting in a final cell density of approximately 5×10^5 CFU/mL.
Plates were stacked 3 to 4 high, covered with a lid on the top plate and placed in plastic bags. […] The MIC was read and recorded as the lowest concentration of drug that inhibited visible growth of the organism.
A general note: Broth dilution looks for growth in wells or tubes with falling amounts of substance.

In assay [3] the test system is Neisseria gonorrhoeae. As to the kind of experiment: Broth microdilution MIC testing (Example 1). The procedure: (§2) In this study, to evaluate the spectrum of activity, cannabidiol (CBD) was profiled against Neisseria. Testing was conducted following guidelines recommended by the Clinical and Laboratory Standards Institute (CLSI, 1-4), using vancomycin, meropenem, levofloxacin, and gentamicin as comparators for testing aerobic bacteria.
(§3) Test agents were supplied by Micromyx. Stock solutions of all compounds were prepared on the first day of testing at 101× the highest test concentration using solvents recommended by CLSI. CBD was prepared fresh on each of testing.
(§4) The test organisms evaluated in this study consisted of clinical isolates from the Micromyx Repository, reference isolates from the American Type Culture Collection (ATCC; Manassas, Va.), isolates from the antibiotic resistance bank from the Centers for Disease Control and Prevention (CDC; Atlanta, Ga.), and isolates from the Network on Antimicrobial Resistance in Staphylococcus aureus (NARSA; BEI Resources, Manassas, Va.). Upon initial receipt at Micromyx, the organisms were sub-cultured onto an appropriate agar medium. Following incubation, colonies were harvested from these plates and cell suspensions prepared and frozen at −80° C. with a cryoprotectant.
(§5) Prior to testing, Neisseria was streaked onto Chocolate agar (BD; Lot No. 9228071) and incubated at 35° C. in 5% CO2 for 24 hr.
(§6) For Neisseria, a modified medium described by the ATCC as capable of supporting growth was used. This medium contains 15 g Oxoid Special Peptone, 1 g corn starch (Ward's Science; Rochester, N.Y.; Lot 39-3271), 5 g NaCl (VWR; 57897), 4 g K2HPO4 (Sigma; Lot SLBT7061), 1 g KH2PO4 (SLBC1921V), and 1% IsoVitaleX (BD; Lot 8323954) enrichment per 500 mL.
(§7) MIC values were determined using a broth microdilution procedure described by CLSI (1-4). Automated liquid handlers (Multidrop 384, Labsystems, Helsinki, Finland; Biomek 2000 and Biomek FX, Beckman Coulter, Fullerton, Calif.) were used to conduct serial dilutions and liquid transfers.
as §1, with “article” for “articles”, “101×” for “100×”
(§8) The daughter plates were loaded with 190 μL per well of the appropriate test medium for the tested organism using the Multidrop 384. The daughter plates were completed on the Biomek FX instrument which transferred 2 μL of drug solution from each well of a mother plate to the corresponding well of each daughter plate in a single step.
A standardized inoculum of each test organism was prepared per CLSI methods (1-4). The inoculum for each organism was dispensed into sterile reservoirs divided by length (Beckman Coulter), and the Biomek 2000 was used to inoculate the plates. Daughter plates were placed on the Biomek 2000 work surface in reverse orientation so that inoculation took place from low to high drug concentration. Plates were inoculated with 10 μL of the inoculum resulting in a final cell density of approximately 5×10^5 CFU/mL per well.
The plates for testing of aerobic organisms were stacked 3 to 4 high, covered with a sterile lid, and incubated at 35° C. and 5% CO2 for the time periods specified in CLSI (1-4). […] Following incubation, the microplates were removed from the incubator and viewed from the bottom using a plate viewer. […] The MIC was read and recorded as the lowest concentration of drug that inhibited visible growth of the organism.

A further assay deals with Neisseria meningitidis. Briefly: Broth microdilution MIC testing (Example 1). The procedure:
as §2, §3, §4, §5, §6, §7
as §1, with “article” for “articles”, “101×” for “100×”
as §8
A standardized inoculum of each test organism was prepared per CLSI methods (1-4). The inoculum for each organism was dispensed into sterile reservoirs divided by length (Beckman Coulter), and the Biomek 2000 was used to inoculate the plates. […]
The plates for testing of aerobic organisms were stacked 3 to 4 high, covered with a sterile lid, and incubated at 35° C. and 5% CO2 for the time periods specified in CLSI (1-4). […] The MIC was read and recorded as the lowest concentration of drug that inhibited visible growth of the organism.

The mark [4] stands for this setting: 25 isolates, agar dilution assay, MIC distribution.
Where [5] appears, read: Neisseria gonorrhoeae, ATCC49226, N. gonorrhoeae MMX 0683 / ATCC 49226, broth microdilution, plate read at 40 hr, read-out: MIC.
Where [6] appears, read: Neisseria gonorrhoeae, N. gonorrhoeae MMX 6746, broth microdilution, read-out: MIC.
Setting [7] is: Neisseria gonorrhoeae, N. gonorrhoeae MMX 6757, broth microdilution, plate read at 40 hr, read-out: MIC.
Where [8] appears, read: Neisseria meningitidis, ATCC13090, N. meningitidis MMX 0707 / ATCC 13090, broth microdilution, read-out: MIC.

For the compound `O=C(O)c1cn(C2CC2)c2cc(N3CCNCC3)c(F)cc2c1=O` [CIP, ciprofloxacin], in the assay with Neisseria gonorrhoeae [1] (setting [4]), the “Number of isolates at MIC 0.015 μg mL^−1” value came to 3, the “Number of isolates at MIC 0.03 μg mL^−1” value was found to be 0, the “Number of isolates at MIC 0.06 μg mL^−1” value turned out to be 0 and the “Number of isolates at MIC 0.12 μg mL^−1” value was 1. Also, in the assay with Neisseria gonorrhoeae [1] (setting [4]), the “Number of isolates at MIC 0.25 μg mL^−1” value stood at 0, the “Number of isolates at MIC 0.5 μg mL^−1” value is on record as 0, the “Number of isolates at MIC 1 μg mL^−1” value came to 0 and the “Number of isolates at MIC 4 μg mL^−1” value is 2. Besides, in the assay on Neisseria gonorrhoeae [1] (setting [4]), the “Number of isolates at MIC >8 μg mL^−1” value was found to be 11 and the “Number of isolates at MIC ≤0.004 μg mL^−1” value is 6. The compound also returned a minimal inhibitory concentration (MIC) against Neisseria gonorrhoeae [1] (N. gonorrhoeae CDC 0177) of 0.015 µg/mL (≈ 0.0453 µM). Moreover, the MIC in the assay with Neisseria gonorrhoeae [1] (N. gonorrhoeae CDC 0181) worked out at 0.015 µg/mL (≈ 0.0453 µM). This compound gave a minimum inhibitory concentration (MIC) in the assay on Neisseria gonorrhoeae [1] (NCTC13478, N. gonorrhoeae NCTC 13478 (WHO G)) of 0.12 µg/mL (≈ 0.362 µM). For the same compound, the minimum inhibitory concentration (MIC) in the assay with Neisseria gonorrhoeae [1] (NCTC13481, N. gonorrhoeae NCTC 13481 (WHO M)) was found to be 2 µg/mL (≈ 6.04 µM). In the assay on Neisseria gonorrhoeae [1] (NCTC13483, N. gonorrhoeae NCTC 13483 (WHO O)), the MIC turned out to be 0.015 µg/mL (≈ 0.0453 µM). In assay [2], the MIC was determined as 0.25 µg/mL (≈ 0.754 µM).

Consider `C[C@H]1COc2c(N3CCN(C)CC3)c(F)cc3c(=O)c(C(=O)O)cn1c23` [LVX, levofloxacin], for which the MIC in the assay on Neisseria gonorrhoeae [3] (setting [5]) is 0.002 µg/mL (≈ 0.00553 µM); in the assay with Neisseria gonorrhoeae [3] (setting [6]), 4 µg/mL (≈ 11.1 µM); in the assay with Neisseria gonorrhoeae [3] (setting [7]), 0.015 µg/mL (≈ 0.0415 µM); with Neisseria meningitidis (setting [8]), 0.004 µg/mL (≈ 0.0111 µM).

On to `C[C@@H](O)[C@H]1C(=O)N2C(C(=O)O)=C(S[C@@H]3CN[C@H](C(=O)N(C)C)C3)[C@H](C)[C@H]12` [MEM, meropenem], for which the MIC in the assay on Neisseria gonorrhoeae [3] (setting [5]) was below 0.03 µg/mL; in the assay on Neisseria gonorrhoeae [3] (setting [6]), 0.06 µg/mL (≈ 0.156 µM); with Neisseria gonorrhoeae [3] (setting [7]), below 0.03 µg/mL; in the assay on Neisseria meningitidis (setting [8]) it was below 0.03 µg/mL.

With `CN[C@H](CC(C)C)C(=O)N[C@H]1C(=O)N[C@@H](CC(N)=O)C(=O)N[C@H]2C(=O)N[C@H]3C(=O)N[C@H](C(=O)N[C@H](C(=O)O)c4cc(O)cc(O)c4-c4cc3ccc4O)[C@H](O)c3ccc(c(Cl)c3)Oc3cc2cc(c3O[C@@H]2O[C@H](CO)[C@@H](O)[C@H](O)[C@H]2O[C@H]2C[C@](C)(N)[C@H](O)[C@H](C)O2)Oc2ccc(cc2Cl)[C@H]1O` [VAN, vancomycin], the MIC against Neisseria gonorrhoeae [3] (Neisseria gonorrhoeae) is 16 µg/mL (≈ 11 µM); against Neisseria gonorrhoeae [3] (Neisseria gonorrhoeae, 40 h), 32 µg/mL (≈ 22.1 µM); against Neisseria gonorrhoeae [3] (Neisseria gonorrhoeae, ATCC49226, 40 h), 8 µg/mL (≈ 5.52 µM); in the assay with Neisseria meningitidis (Neisseria meningitidis, ATCC13090) it was above 32 µg/mL.

gentamicin: the minimum inhibitory concentration (MIC) in the assay on Neisseria gonorrhoeae [3] (N. gonorrhoeae MMX 0683 / ATCC 49226, broth microdilution, plate read at 40 hr) turned out to be 4 µg/mL; in the assay with Neisseria gonorrhoeae [3] (N. gonorrhoeae MMX 6746, broth microdilution), 16 µg/mL; against Neisseria gonorrhoeae [3] (N. gonorrhoeae MMX 6757, broth microdilution, plate read at 40 hr), 8 µg/mL; against Neisseria meningitidis (N. meningitidis MMX 0707 / ATCC 13090, broth microdilution), 8 µg/mL.
